The assay deals with P388 leukemia ip, CD2F1 mice, survival T/C. The assay is described as follows: NCI In Vivo Anticancer Drug Screen. Data for tumor model P388 Leukemia (intraperitoneal) in CD2F1 (CDF1) mice. The settings on record: endpoint: median survival time, higher = longer survival. In a few lines: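 Mice carrying the transplanted tumor received test compound or vehicle. Survival was recorded in each group, and the value is the treated-group measurement divided by that of the vehicle-treated control group.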

Where [1] appears, read: dose: 50.0 mg/kg/injection, schedule: Q01DX009 (ip), vehicle: suspension in saline.
Setting [2] is: dose: 100.0 mg/kg/injection, schedule: Q01DX009 (ip), vehicle: suspension in saline.
Setting [3] is: dose: 200.0 mg/kg/injection, schedule: Q01DX009 (ip), vehicle: suspension in saline.
The mark [4] stands for this setting: dose: 60.0 mg/kg/injection, schedule: Q01DX005 (ip), vehicle: saline with Tween-80.
Setting [5] is: dose: 50.0 mg/kg/injection, schedule: Q01DX005 (ip), vehicle: saline with Tween-80.
Where [6] appears, read: dose: 100.0 mg/kg/injection, schedule: Q01DX005 (ip), vehicle: saline with Tween-80.
Setting [7] is: dose: 200.0 mg/kg/injection, schedule: Q01DX005 (ip), vehicle: saline with Tween-80.
Setting [8] is: dose: 120.0 mg/kg/injection, schedule: Q01DX005 (ip), vehicle: saline with Tween-80.
The mark [9] stands for this setting: dose: 240.0 mg/kg/injection, schedule: Q01DX005 (ip), vehicle: saline with Tween-80.
[10] abbreviates: dose: 50.0 mg/kg/injection, schedule: Q01DX009 (ip), vehicle: saline with Tween-80.
Where [11] appears, read: dose: 100.0 mg/kg/injection, schedule: Q01DX009 (ip), vehicle: saline with Tween-80.
Setting [12] is: dose: 200.0 mg/kg/injection, schedule: Q01DX009 (ip), vehicle: saline with Tween-80.
[13] abbreviates: dose: 12.5 mg/kg/injection, schedule: Q01DX009 (ip), vehicle: saline.
Setting [14] is: dose: 25.0 mg/kg/injection, schedule: Q01DX009 (ip), vehicle: saline.
The mark [15] stands for this setting: dose: 50.0 mg/kg/injection, schedule: Q01DX009 (ip), vehicle: saline.
Where [16] appears, read: dose: 100.0 mg/kg/injection, schedule: Q01DX009 (ip), vehicle: saline.

Values joined by “and” are separate entries in the source; they are usually repeats but may differ in a detail not shown here. Equal entries are not always repeated. Toxic doses and inconclusive results are not listed.

`Nc1nc(N)nc(-c2ccccc2)n1`: the T/C reads like this: under setting [1], 106 % of control; under setting [2], 99 % of control; under setting [3], 106 % of control.

In the case of `Cc1cccc(Cl)c1NCCN1CCCC1`, the T/C is, setting by setting: (dose: 15.0 mg/kg/injection, schedule: Q01DX005 (ip), vehicle: saline with Tween-80) 103 % of control; (dose: 30.0 mg/kg/injection, schedule: Q01DX005 (ip), vehicle: saline with Tween-80) 101 % of control; under setting [4], 106 % of control and 108 % of control.

`Cc1ccc(S(=O)(=O)NCCN(CCNS(=O)(=O)c2ccc(C)cc2)S(=O)(=O)c2ccc(C)cc2)cc1`: the T/C reads like this: (dose: 100.0 mg/kg/injection, schedule: Q01DX001 (ip), vehicle: saline with Tween-80) 86 % of control; (dose: 200.0 mg/kg/injection, schedule: Q01DX001 (ip), vehicle: saline with Tween-80) 86 % of control; (dose: 400.0 mg/kg/injection, schedule: Q01DX001 (ip), vehicle: saline with Tween-80) 88 % of control.

For the molecule `O=c1ccc2cc3ccoc3c(OCCOCCOCCOCCOc3c4occc4cc4ccc(=O)oc34)c2o1`, the T/C was 92 % of control under setting [5], 91 % of control under setting [6] and 91 % of control under setting [7].

As to `COc1ccc(S(=O)(=O)N/N=C/c2cc([N+](=O)[O-])cc(I)c2O)cc1`, the T/C was 101 % of control under setting [5], 100 % of control under setting [6] and 117 % of control under setting [7].

On to `COc1ccc(C2c3c(ccc4ccccc34)Oc3ccc4ccccc4c32)cc1`, for which the T/C by setting is: under setting [4], 87 % of control; under setting [8], 86 % of control; under setting [9], 90 % of control.

For `NC(C(=O)O)c1ccc(CO)cc1` (stereo not drawn), the T/C by setting is: (dose: 25.0 mg/kg/injection, schedule: Q01DX009 (ip), vehicle: saline with Tween-80) 100 % of control; (dose: 50.0 mg/kg/injection, schedule: Q01DX005 (ip), vehicle: water) 86 % of control; under setting [10], 86 % of control; (dose: 100.0 mg/kg/injection, schedule: Q01DX005 (ip), vehicle: water) 107 % of control; under setting [11], 106 % of control; (dose: 200.0 mg/kg/injection, schedule: Q01DX005 (ip), vehicle: water) 97 % of control.

For `O=C1c2ccccc2C(=O)N1C1Nc2ccccc2N1`, the T/C by setting is: under setting [4], 99 % of control; under setting [8], 99 % of control; under setting [9], 96 % of control.

As to `OCC1OC(n2cc(I)c3c2ncn2ccnc32)C(O)C1O` (stereo not drawn), the T/C is 98 % of control (dose: 1.56 mg/kg/injection, schedule: Q01DX009 (ip), vehicle: water); 102 % of control (dose: 3.13 mg/kg/injection, schedule: Q01DX009 (ip), vehicle: water); 100 % of control (dose: 6.25 mg/kg/injection, schedule: Q01DX009 (ip), vehicle: water); 102 % of control (dose: 12.5 mg/kg/injection, schedule: Q01DX009 (ip), vehicle: water); 106 % of control (dose: 25.0 mg/kg/injection, schedule: Q01DX009 (ip), vehicle: water).

For the molecule `Cc1cc(NCCCCNCCCNc2cc(C)nc3cc([N+](=O)[O-])ccc23)c2ccc([N+](=O)[O-])cc2n1`, the T/C (dose: 12.5 mg/kg/injection, schedule: Q01DX009 (ip), vehicle: other) is 150 % of control.

For the molecule `O=[N+]([O-])c1ccc(N/N=C(\C(=N/Nc2ccc([N+](=O)[O-])cc2[N+](=O)[O-])c2ccccc2)c2ccccc2)c([N+](=O)[O-])c1`, the T/C by setting is: (dose: 50.0 mg/kg/injection, schedule: Q04DX003 (ip), vehicle: saline with Tween-80) 103 % of control; (dose: 100.0 mg/kg/injection, schedule: Q04DX003 (ip), vehicle: saline with Tween-80) 91 % of control; (dose: 200.0 mg/kg/injection, schedule: Q04DX003 (ip), vehicle: saline with Tween-80) 91 % of control.

With `CCC1(CN(C)C)C(=O)N(C)C(=O)N(C2CCCCC2)C1=O` (stereo not drawn), the T/C under setting [10] was 96 % of control, the T/C under setting [11] was 102 % of control and the T/C under setting [12] is 107 % of control.

As for `CC(C)C(C)CS(=O)(=O)OCCCCOS(=O)(=O)CC(C)C(C)C` (stereo not drawn), the T/C (dose: 50.0 mg/kg/injection, schedule: Q01DX005 (ip), vehicle: suspension in saline) is 103 % of control; the T/C (dose: 100.0 mg/kg/injection, schedule: Q01DX005 (ip), vehicle: suspension in saline) is 105 % of control; the T/C (dose: 200.0 mg/kg/injection, schedule: Q01DX005 (ip), vehicle: suspension in saline) is 112 % of control.

`CCCC1(CCC)NC(=O)N(CC(=O)OCC)C1=O`: the T/C reads like this: (dose: 100.0 mg/kg/injection, schedule: Q01DX001 (ip), vehicle: saline) 105 % of control; (dose: 200.0 mg/kg/injection, schedule: Q01DX001 (ip), vehicle: saline) 110 % of control.

Regarding `CC1(C)N=C(N)N=C(N)N1c1cccc(OCCOc2ccccc2[N+](=O)[O-])c1`, the T/C reads like this: under setting [4], 104 % of control; under setting [8], 95 % of control; under setting [9], 98 % of control.

`CCOC(=O)Nc1cc2c(c(N)n1)N=C(c1ccc(C)cc1C)CN2`: the T/C reads like this: (dose: 5.0 mg/kg/injection, schedule: Q01DX005 (ip), vehicle: saline with Tween-80) 109 % of control; (dose: 10.0 mg/kg/injection, schedule: Q01DX005 (ip), vehicle: saline with Tween-80) 115 % of control; (dose: 20.0 mg/kg/injection, schedule: Q01DX005 (ip), vehicle: saline with Tween-80) 123 % of control.

`Oc1ccc2c(c1)OC1(c3ccccc3)CC2N=CN1` (stereo not drawn): the T/C under setting [13] was 103 % of control; the T/C under setting [14] was 95 % of control; the T/C under setting [15] is 107 % of control; the T/C under setting [1] was 98 % of control and 92 % of control; the T/C under setting [2] is 98 % of control and 92 % of control; the T/C under setting [3] is 99 % of control.

Regarding `COc1ccc(Cc2noc(=O)[nH]2)cc1`, the T/C by setting is: under setting [10], 104 % of control; under setting [11], 104 % of control; under setting [12], 106 % of control.

In the case of `Cc1cc(O)c2c(=O)c(=O)c2c1`, the T/C was 101 % of control under setting [5] and 103 % of control under setting [6].

As for `O=C(O)/C=C/c1ccc([N+](=O)[O-])o1`, the T/C is, setting by setting: (dose: 25.0 mg/kg/injection, schedule: Q01DX009 (ip), vehicle: Klucel (hydroxypropylcellulose) (HPC)) 107 % of control and 117 % of control; (dose: 50.0 mg/kg/injection, schedule: Q01DX009 (ip), vehicle: Klucel (hydroxypropylcellulose) (HPC)) 120 % of control.

Turning to `COC(=O)C1CC2C(=O)N(C)C=CC12` (stereo not drawn), the T/C (dose: 100.0 mg/kg/injection, schedule: Q04DX002 (ip), vehicle: saline with Tween-80) was 104 % of control; the T/C (dose: 200.0 mg/kg/injection, schedule: Q04DX002 (ip), vehicle: saline with Tween-80) is 98 % of control; the T/C (dose: 400.0 mg/kg/injection, schedule: Q04DX002 (ip), vehicle: saline with Tween-80) was 102 % of control.

For the molecule `CC(S)c1ccccc1` (stereo not drawn), the T/C runs as follows: under setting [10], 115 % of control; under setting [11], 113 % of control; under setting [12], 115 % of control.

As for `Cc1ccc2c(c1)Nc1c(ccc3ccccc13)S2`, the T/C was 105 % of control under setting [5], 105 % of control under setting [6] and 103 % of control under setting [7].

On to `ICC1CCCCC1CI` (stereo not drawn), for which the T/C reads like this: under setting [5], 106 % of control; under setting [6], 99 % of control; under setting [7], 104 % of control.

As to `CC(C)(C)C(C(=O)O)C(=O)O`, the T/C runs as follows: under setting [13], 101 % of control; under setting [14], 99 % of control; under setting [15], 96 % of control; under setting [16], 99 % of control.

For `COc1ccc(C(=O)CCc2c[nH]c3ccccc23)c(O)c1`, the T/C reads like this: under setting [4], 101 % of control; under setting [8], 112 % of control; under setting [9], 92 % of control.

As to `CC1CCCCC1(O)Cc1ccccc1` (stereo not drawn), the T/C (dose: 50.0 mg/kg/injection, schedule: Q01DX005 (ip), vehicle: distilled water + alcohol) is 108 % of control; the T/C (dose: 100.0 mg/kg/injection, schedule: Q01DX005 (ip), vehicle: distilled water + alcohol) is 101 % of control; the T/C (dose: 200.0 mg/kg/injection, schedule: Q01DX005 (ip), vehicle: distilled water + alcohol) was 105 % of control.

Take `OCC1OC2NC(=S)OC2C1O` (stereo not drawn): the T/C is 100 % of control under setting [15]; 100 % of control under setting [16]; 95 % of control (dose: 200.0 mg/kg/injection, schedule: Q01DX009 (ip), vehicle: saline).

These data come from PubChem BioAssay AID330 (DTP/NCI, 2004).
